Assay results taken from publication PMC9712021 (Advances in Pharmacological and Pharmaceutical Sciences, 2022).

Experiments:
[1] = test system: mouse erythrocytes; assay: Hemolytic activity in mice erythrocytes; assay type: cell-based; conditions: for Hemolysis (%): 37°C, 2 h
Procedure: (§1) This test was performed on adult Swiss albino mouse (Mus musculus) erythrocytes. The mouse was collected from the Central Animal House of the Federal University of Piaui, Brazil. It was allowed free access to standard food and water ad libitum and was kept under controlled lighting (12 h dark/light cycles) at 24 ± 2°C. Blood was collected from the retro-orbital plexus of the mouse (male, 24 gm body weight). Hemolytic activity in mouse erythrocytes was performed, according to Jamialahmadi et al..

[2] = test system: Artemia salina; assay: Artemia salina bioassay (brine shrimp lethality bioassay)
Procedure: This test was carried out with a slight modification, as described by Amaral et al.. Briefly, shrimp cysts were incubated in a small aquarium containing a brine solution (50 mg of cysts and 300 mL of brine) for 48 h with direct lighting. […] […] In the negative (NC) and positive (PC) control groups, saline solution and potassium dichromate (K2Cr2O7) were added, respectively. The concentration range used in the case of the PC group was 31.25 to 500 μg/mL.

[3] = test system: S. cerevisiae EG103 (SODWT); assay: S. cerevisiae central disc test, oxidative damage, strain SODWT; assay type: cell-based, Saccharomyces cerevisiae
Excerpt: (§2) The central disc test was done according to the method presented by Islam et al.. Superoxide dismutase (CuZnSOD-Sod1) is a cytosolic enzyme that is faulty in strain EG118, whereas mitochondrial SOD is faulty in strain EG110 (MnSOD-Sod2). The strain EG133 has both Sod1 and Sod2 defects, while EG223 has a cytosolic catalase deficiency (Cat1). While EG103 is a competent strain that is identical to the wild-type (SODWT), EG is a dual isogenic strain for the Sod1 and Cat1 genes.

[4] = test system: S. cerevisiae EG110 (Sod2∆); assay: S. cerevisiae central disc test, oxidative damage, strain Sod2∆; assay type: cell-based, Saccharomyces cerevisiae
Excerpt: as §2

[5] = test system: S. cerevisiae EG223 (Cat1∆); assay: S. cerevisiae central disc test, oxidative damage, strain Cat1∆; assay type: cell-based, Saccharomyces cerevisiae
Excerpt: as §2

[6] = test system: S. cerevisiae EG (Sod1∆Cat1∆); assay: S. cerevisiae central disc test, oxidative damage, strain Sod1∆Cat1∆; assay type: cell-based, Saccharomyces cerevisiae
Excerpt: as §2

[7] = test system: S. cerevisiae strains (SODWT, Sod1Δ, Sod2Δ, Cat1Δ, Sod1/Sod2Δ, Cat1Δ/Sod1Δ); assay: In vivo antioxidant (S. cerevisiae) test, all strains tested; assay type: cell-based, Saccharomyces cerevisiae
Excerpt: as §2

[8] = Hemolytic activity in mice erythrocytes; assay type: cell-based, Mus musculus; conditions: male, Swiss albino, mouse, mouse erythrocyte suspension, 37°C, 2 h
Procedure: as §1

[9] = test system: S. cerevisiae EG133 (Sod1∆Sod2∆); assay: S. cerevisiae central disc test, oxidative damage, strain Sod1∆Sod2∆; assay type: cell-based, Saccharomyces cerevisiae
Excerpt: as §2

[10] = test system: S. cerevisiae EG118 (Sod1∆); assay: S. cerevisiae central disc test, oxidative damage, strain Sod1∆; assay type: cell-based, Saccharomyces cerevisiae
Excerpt: as §2

Compound: Triton X-100 [reference compound]
- Hemolysis (%) ([1]; 31.25 μg/mL): 100 ± 0.00^∗ %
- Hemolysis (%) ([1]; 62.5 μg/mL): 100 ± 0.00^∗ %
- Hemolysis (%) ([1]; 125 μg/mL): 100 ± 0.00^∗ %
- Hemolysis (%) ([1]; 250 μg/mL): 100 ± 0.00^∗ %
- Hemolysis (%) ([1]; 500 μg/mL): 100 ± 0.00^∗ %

Compound: CC(C)=CCC/C(C)=C\CO [Nerol, cis-3,7-dimethyl-2,6-octadien-1]
- Artemia Salina mortality ([2]; 62.5 μg/mL, 48 h of exposure): 100%
- cytotoxic effects in the A. Salina test ([2]; 31.25–500 μg/mL): significant cytotoxic effects
- oxidative damage ([3]; 0.9 μg/mL): 1.50 ± 0.70
- oxidative damage ([3]; 1.8 μg/mL): 1.50 ± 0.70
- oxidative damage ([3]; 7.2 μg/mL): 2.00 ± 1.41
- oxidative damage ([3]; 14.4 μg/mL): 2.50 ± 0.70
- oxidative damage ([3]; 32 μg/mL): 2.00 ± 1.41
- oxidative damage ([3]; 64 μg/mL): 2.00 ± 1.41
- oxidative damage ([3]; 128 μg/mL): 1.00 ± 0.28
- oxidative damage ([3]; 3.6 mg/mL): 1.00 ± 0.28
- oxidative damage ([3]; 256 mg/mL): 2.00 ± 0.24
- oxidative damage ([3]; 500 mg/mL): 1.00 ± 0.28
- oxidative damage ([4]; 0.9 μg/mL): 1.00 ± 0.28
- oxidative damage ([4]; 1.8 μg/mL): 3.00 ± 1.41
- oxidative damage ([4]; 7.2 μg/mL): 3.00 ± 1.41
- oxidative damage ([4]; 14.4 μg/mL): 3.00 ± 1.41
- oxidative damage ([4]; 32 μg/mL): 1.50 ± 0.70
- oxidative damage ([4]; 64 μg/mL): 2.50 ± 0.70
- oxidative damage ([4]; 128 μg/mL): 2.50 ± 0.70
- oxidative damage ([4]; 3.6 mg/mL): 2.50 ± 0.70
- oxidative damage ([4]; 256 mg/mL): 2.00 ± 1.41
- oxidative damage ([4]; 500 mg/mL): 2.00 ± 0.24
- oxidative damage ([5]; 0.9 μg/mL): 1.50 ± 0.70
- oxidative damage ([5]; 1.8 μg/mL): 2.50 ± 0.70
- oxidative damage ([5]; 7.2 μg/mL): 2.50 ± 0.70
- oxidative damage ([5]; 14.4 μg/mL): 3.00 ± 0.54
- oxidative damage ([5]; 32 μg/mL): 3.50 ± 0.70
- oxidative damage ([5]; 64 μg/mL): 3.00 ± 1.41
- oxidative damage ([5]; 128 μg/mL): 3.00 ± 1.41
- oxidative damage ([5]; 3.6 mg/mL): 4.00 ± 1.2
- oxidative damage ([5]; 256 mg/mL): 1.50 ± 0.70
- oxidative damage ([5]; 500 mg/mL): 2.50 ± 0.70
- oxidative damage ([6]; 0.9 μg/mL): 2.50 ± 2.10
- oxidative damage ([6]; 1.8 μg/mL): 2.50 ± 0.70
- oxidative damage ([6]; 7.2 μg/mL): 3.00 ± 1.41
- oxidative damage ([6]; 14.4 μg/mL): 3.00 ± 1.41
- oxidative damage ([6]; 32 μg/mL): 3.50 ± 0.70
- oxidative damage ([6]; 64 μg/mL): 3.00 ± 1.41
- oxidative damage ([6]; 128 μg/mL): 2.50 ± 0.70
- oxidative damage ([6]; 256 μg/mL): 3.00 ± 1.41
- oxidative damage ([6]; 3.6 mg/mL): 3.00 ± 1.41
- oxidative damage ([6]; 500 mg/mL): 2.50 ± 0.70
- percentage modulation of oxidative damage caused by the stressor H2O2 ([7]; all strains and concentrations tested): more than 60%
- induction of oxidative damage ([7]; any concentration, any of the tested S. cerevisiae strains): did not induce oxidative damage
- hemolysis at 2 h, 31.25 μg/mL ([8]; pH 7.4, 31.25 μg/mL): 2.67 ± 0.35%
- hemolysis at 2 h, 62.5 μg/mL ([8]; pH 7.4, 62.5 μg/mL): 4.49 ± 0.26%
- hemolysis at 2 h, 125 μg/mL ([8]; pH 7.4, 125 μg/mL): 5.12 ± 1.05%
- hemolysis at 2 h, 250 μg/mL ([8]; pH 7.4, 250 μg/mL): 6.54 ± 1.78%
- hemolysis at 2 h, 500 μg/mL ([8]; pH 7.4, 500 μg/mL): 39.1%
- Hemolysis (%) ([1]; 500 μg/mL): 34.95 ± 4.74^∗ %
- cytotoxic effects in the hemolysis test ([1]; 31.25–500 μg/mL): significant cytotoxic effects
- oxidative damage ([9]; 0.9 μg/mL): 2.00 ± 1.41
- oxidative damage ([9]; 1.8 μg/mL): 2.50 ± 0.70
- oxidative damage ([9]; 7.2 μg/mL): 3.00 ± 1.41
- oxidative damage ([9]; 14.4 μg/mL): 3.00 ± 0.54
- oxidative damage ([9]; 32 μg/mL): 4.50 ± 0.70
- oxidative damage ([9]; 64 μg/mL): 2.50 ± 0.70
- oxidative damage ([9]; 128 μg/mL): 3.00 ± 1.41
- oxidative damage ([9]; 3.6 mg/mL): 2.50 ± 0.70
- oxidative damage ([9]; 256 mg/mL): 2.50 ± 0.70
- oxidative damage ([9]; 500 mg/mL): 2.50 ± 0.70
- oxidative damage ([10]; 0.9 μg/mL): 1.50 ± 0.70
- oxidative damage ([10]; 1.8 μg/mL): 2.00 ± 1.41
- oxidative damage ([10]; 7.2 μg/mL): 3.00 ± 1.41
- oxidative damage ([10]; 14.4 μg/mL): 2.50 ± 0.70
- oxidative damage ([10]; 32 μg/mL): 3.50 ± 0.70
- oxidative damage ([10]; 64 μg/mL): 1.50 ± 0.70
- oxidative damage ([10]; 128 μg/mL): 2.00 ± 1.41
- oxidative damage ([10]; 3.6 mg/mL): 2.50 ± 0.70
- oxidative damage ([10]; 256 mg/mL): 2.50 ± 0.70
- oxidative damage ([10]; 500 mg/mL): 2.00 ± 0.24

Compound: OO [H2O2, hydrogen peroxide, reference compound]
- oxidative damage ([3]; 10 mM, positive control): 30.75 ± 5.0^∗∗
- oxidative damage ([4]; 10 mM, positive control): 25.25 ± 6.18^∗∗
- oxidative damage ([5]; 10 mM, positive control): 24.25 ± 4.03^∗∗
- oxidative damage ([6]; 10 mM, positive control): 22.25 ± 4.57^∗∗
- oxidative damage ([9]; 10 mM, positive control): 27.00 ± 5.09^∗∗
- oxidative damage ([10]; 10 mM, positive control): 25.5 ± 4.2^∗∗
